According to US20210015793A1, “COMPOUNDS FOR TREATING CNS- AND NEURODEGENERATIVE DISEASES” (ETH ZURICH, priority 2018, published 2021):

System: Tg-TauP301L mice
Assay: Hippocampal PHF Tau hyperphosphorylation (AT8) in Tg-TauP301L model of tauopathy
Type: in vivo, mouse
Settings: 12 months-old Tg-TauP301L mice treated for 6 months
Source text: For a genetic model of familial AD (FAD), Tg2576 mice (Taconic Biosciences, Rensselaer, N.Y., USA) were used with neuron-specific overexpression of human APPSwe, i.e the Swedish mutation of APP695 isolated from a Swedish family with FAD featuring the double mutation K670N/M671L (Hsiao et al., Science 274, 99-103 (1996)). As a genetic model of tauopathy, the Tg-TauP301L mice (Model 2508, Taconic Biosciences, Rensselaer, N.Y., USA) with neuron-specific expression of the most common FTDP-17 (frontotemporal dementia and parkinsonism linked to chromosome 17) mutation (Lewis et al., Nature Genetics 25, 402-405 (2000)) were used. To enhance neurodegeneration and neuronal loss, the CUMS (chronic unpredictable mild stress) protocol was performed with male 12 months-old Tg2576 mice for 3 months essentially as described (AbdAlla et al., J. Biol. Chem. 284, 6554-6565 (2009); AbdAlla et al., J. Biol. Chem. 284, 6566-6574 (2009)). […]
Similarly, hyperphosphorylated Tau was detected with AT8 antibody on paraffin-embedded brain sections from 12 months-old Tg-TauP301L mice (Model 2508, Taconic Biosciences, Rensselaer, N.Y., USA) without and with treatment with Compound-1 and Compound-4 for 6 months. […]

Q: What does the source list for O=C(C1=C(O)C(c2ccccc2)N(c2ccc3c(c2)OCO3)C1=O)C1CC1 (centres unmarked) [Compound-1, 1-(1,3-benzodioxol-5-yl)-4-(cyclopropane-carbonyl)-3-hydroxy-2-phenyl-2H-pyrrol-5-one]?
A: hippocampal content of hyperphosphorylated PHF-Tau (quantitative, [125I]-AT8 binding): significantly decreased hippocampal content of hyperphosphorylated PHF-Tau; PHF Tau hyperphosphorylation in hippocampal CA3 area (immunohistology) (8 mg/kg/d in drinking water): largely absent
